Test results taken from patent US12264142B2, “Heterocyclic compounds” (FLORATEK PHARMA SA, priority 2019, dated 2025).
Entries after “also recorded” stand apart in the source; their conditions may differ.

What was measured:
C. elegans = assay: Life span assay on Automated Lifespan Machine (SND302, SND303); assay type: in vivo; conditions: for Maximum life span: average lifespan of the ten longest-lived worms; for Age in days at 25% mortality / Age in days at 50% mortality / Age in days at 75% mortality / Age in days at 90% mortality / Age in days at 100% mortality: SND302, SND303 25 μM, Uro A, Resveratrol 50 μM
Protocol: An additional life span assay using an adapted standard protocol employed and published by the C. elegans Intervention Testing Program, or CITP was employed to assess the activity of SND302 and SND303. A positive and a negative control were included in the assay. In a preliminary experiment the optimal conditions for the life span analysis was determined and the stress level induced by the compounds as well as toxicity were measured.
For the life span assay over 300 worms per conditions were used and the study was conducted by InVivoBiosystems (USA) using an Automated Lifespan Machine (ALM) with proprietary modifications to improve temperature stability and image acquisition.
To prevent chemical modification or metabolism of the test article by the food bacteria, worms were fed on a lawn of UV-killed bacteria (UV-i bacteria). An overnight culture of E. coli strain WP-2 was pelleted, washed, filtered, and irradiated. A suspension of UV-i bacteria was spotted on NGM agar containing Streptomycin to inhibit growth of contaminating bacteria. The quantity and distribution of food bacteria was calibrated to ensure adequate access to food for the duration of assay while maintaining visibility of the worms.
Test article was delivered to worms by a method compatible with and previously validated on the Automated Lifespan Machine and used by the CIT [Lucanic, et. al. Impact of genetic background and experimental reproducibility on identifying chemical compounds with robust longevity effects. Nature Communications 8 (2017)]. A 200× stock solution was freshly prepared in DMSO immediately before application. 40 μl of DMSO stock (0.5% plate volume) was applied to the plate to coat the food bacteria and then chased immediately with 160 μl water to uniformly distribute a fine precipitate across the surface of the plate. This functioned to provide reservoirs of compound in food, agar, and agar surface.
The ALM used by InVivoBiosystems is based on the Caenorhabditis elegans lifespan machine published by Stroustrup, N. et al. The Caenorhabditis elegans Lifespan Machine. N at Methods 10, 665-670 (2013), with proprietary modifications to improve temperature stability and image acquisition. The scanner unit consists of a modified EPSON V850 and images are processed and analyzed using the ALM software 7. The machine time-of-death calls are trained and validated using the “storyboarding” feature of the ALM software.
The lifespan assay was designed and performed according to published and validated methods, Amrit, F. R. G., Ratnappan, R., Keith, S. A. & Ghazi, A. The C. elegans lifespan assay toolkit. Methods 68, 465-475 (2014); Lucanic, et. al. Manual Lifespan Assay Standard Operating Procedure. Caenorhabditis Intervention Testing Program https://figshare.com/articles/7_CITP_SOP_Manual_Lifespan_Assay/9738197/1. using a modified version of the Automated Lifespan Machine. Worms were age synchronized by bleaching and eggs were plated directly onto NGM agar seeded with UV-I bacteria (Day 1, hatch). On Day 3, when the worms had reached the late L4 stage, they were transferred to dishes containing 100 μM 5-Fluorodeoxyuridine (FUdR) to suppress progeny. On day 5, the worms were washed off the dishes and 30-50 worms were plated on each scanner dish. Plates were immobilized inverted on the bed of an Automated Lifespan Machine which scanned two images per hour of the plates continuously for the next 40 days.
Time of death calls exported from the ALM software were analyzed and plotted using the Lifelines software package developed by Davidson-Pilon, (2019). lifelines: survival analysis in Python. Journal of Open Source Software, 4(40), 1317.

[1] = test system: C. elegans gene expression; assay: Whole transcriptome analysis (RNA-Seq) of treated worms; assay type: in vivo; conditions: for Significant differentially-expressed genes: 25 μM
Protocol: To determine the mode of action for SND302 and SND303 the gene transcription in young and aged adults was analyzed by RNA-Seq (whole transcription analysis). For each condition, >300 worms were treated in parallel with the lifespan assay and maintained under identical conditions.
Differential gene expression was performed with EdgeR using […] likelihood ratio tests based on fitting linear models. The likelihood ratios were used to determine the p-values which were subsequently corrected for using the BH false discovery rate (fdr) method. Eventually, differential expressed genes were defined as genes with fdr-corrected p-value of 0.05 or lower, as well as a change in expression of at least 2-fold in a given between-group comparison. Compounds SND302 and SND303 were compared against Urolithin and Vehicle control. […] In general the transcriptomic data corroborates a differential effect for SND303 when compared to SND302 (FIGS. 1-4).
Worms for RNA-Seq were split from the same synchronized pool of worms for the lifespan with each of the three replicates being maintained and treated in parallel. More than 150 worms per replicate were harvested, cleaned by filtration, and frozen at −80° in Trizol. To extract RNA, samples were thawed, vigorously vortexed, and processed using the Direct-zol RNA Miniprep Kit (Zymo Research). All samples exceeded our threshold for RNA quantity and quality. RNA samples were submitted to Novogene Co. Ltd and subjected to more stringent QC, being tested on a Qubit for concentration and run on an agarose gel and on the Agilent […] assess RNA quality and integrity. […] The total RNA was then enriched for poly-mRNA using oligo(dT) paramagnetic beads. DNA libraries were then constructed from this input mRNA using the NEBNext Ultra™ II RNA Library Prep Kit.
These libraries were then further tested by the Qubit for concentration and the Agilent 2100 for library size distribution and quality. In order to properly pool the libraries and load them onto sequencing lanes to ensure the correct number of reads per sample, an even more precise quantification of the library was done via qPCR, and the samples were loaded onto the NovaSeq 6000 platform for a paired-end sequencing run of 150 bp for each end (PE150). The loading concentrations were designed to obtain at least 6.0 Gb (which is the number of billion bases of raw data, determined by the number of reads multiplied by the length of each read). A mean of 7.4 Gb (median 7.3 Gb) raw sequencing data was obtained across all samples, with a minimum of 6.3 Gb and a maximum of 8.5 Gb raw data. Sequencing run data quality control was performed both by Novogene and by an in-house analysis. The raw data set was analyzed for parameters such as the distribution of base quality along the length of the sequencing read, the distribution of error rate along the length of the sequencing read. Reads containing adapter sequences, with N>10% (where N means “base cannot be determined”) and with a low quality (Qscore<=5) for 50% or more of its total bases were removed.

[2] = test system: N2 wild type strain of worms; assay: C. elegans life span (survival) assay, manual scoring (SND301); assay type: in vivo; conditions: for Death events / Maximum life span / Median lifespan: SND301 and Urolithin A 50 μM; for % Complete: deaths attributed to aging from total worm population
Protocol: The survival assay was conducted in the presence of 50 μM SND301 with measurements of live, dead, and censored worms at time points every 2-3 days from the start of adulthood.
Thioflavin T was used in the assay as a positive control [Gamir-Morralla A et al, 2019, “Effects of Thioflavin T and GSK-3 Inhibition on Lifespan and Motility in a Caenorhabditis elegans Model of Tauopathy”, J Alzheimers Dis Rep., 3(1): 47-57]. Vehicle 25% and 1% DMSO were used as controls and represent the vehicles in which compounds and bacteria or bacteria alone respectively were resuspended. The final DMSO concentration in the agar plates was 0.5% and 0.02% respectively.
5 mM DMSO stock solutions for each compound were prepared in high-grade DMSO. Stocks were protected from light and stored in glass vials at 21° C. in a temperature-controlled room (to avoid freeze/thaw of DMSO). A fresh stock was prepared at the start of each experiment and stored for <1 week.
The lifespan assay was designed and performed according to published and validated methods with modifications for chemical treatment [Amrit F R G et al, 2014, “The C. elegans lifespan assay toolkit”, METHODS 68, 465-475; Leukanic, et. Al, “Manual Lifespan Assay Standard Operating Procedure”, Caenorhabditis Intervention Testing Program, https://figshare.com/articles/7_CITP_SOP_Manual_Lifespan_Assay/9738197/1]. Plates were seeded with compound dissolved in 25% DMSO and bacteria. The DMSO diffused through the agar to reach a final concentration of 0.5%. Synchronized day 1 adult worms were transferred to seeded plates containing compound and allowed to lay eggs for 2 hours (Day 0, “hatchoff”). The young adults were then removed, and the eggs were incubated at 20° C. until they had reached the young adult stage (day 3). 200 young adult worms per treatment were transferred to 8 fresh seeded 35 mm dishes with compound and 50 μM 5-Fluorodeoxyuridine to suppress progeny. […] Worms that were missing, stuck to the dish, burrowed, injured, or exploded were scored as censored and removed from the plate. To maintain chemical exposure at the experimental concentrations, worms were transferred every other scoring day to new seeded plates with compound.

human hepatocytes [3] = assay: Cytotoxicity (LDH leakage, membrane integrity) in primary human hepatocytes; assay type: cell-based; conditions: 1 to 100 μM, 24 h exposure, pooled human hepatocytes
Protocol: (§1) Cytotoxicity potency of test compound SND301 was assayed in human hepatocytes from pooled donor lots at three concentrations; 1, 10 and 100 μM. Cytotoxicity was assayed from medium samples after 24 h exposure period with test compounds by measuring membrane integrity (LDH leakage), coupled to fluorescent signal. In parallel, cell viability was assayed by the means of ATP content, indicating the metabolically competent cell activity. ATP content was measured based on luciferase catalysed reaction generating stable bioluminescent signal. Cytotoxic positive control compound was used: chlorpromazine at 5-250 μM.
(§2) Cryopreserved human hepatocytes from pooled donor lot (Bioreclamation IVT) were seeded on collagen I coated 96-well plates (Corning Biocoat) at 0.55×10^5 cells per well in 120 μl InVitroGRO™ CP medium (BioIVT), including additives Torpedo Antibiotic mix (BioIVT). […] Cytotoxicity and cell viability were evaluated based on LDH release in medium and ATP content in the cells after 24 hours exposure phase.
After 24 h exposure half of the culture medium (50 μl) was transferred to black opaque-walled 96-well plate (Corning #3603) for LDH measurements and allowed to settle to room temperature. […] Thereafter the samples were analysed with plate reader for fluorescence (LDH; 560ex, 590em).
(§3) Both LDH and ATP assays were measured 1-2 hours post treatment with assay components.

human hepatocytes [4] = assay: Cell viability (ATP content) in primary human hepatocytes; assay type: cell-based; conditions: 1 to 100 μM, 24 h exposure, pooled human hepatocytes
Protocol: as §1, §2
The remaining medium and cells were used for the assessment of metabolically competent cells (ATP) according to the manufacturer's (Promega) protocol. […] The samples were transferred to white opaque-walled 96-well plate (Corning #3610) after which measured with plate reader for luminescence.
as §3

[5] = test system: N2 wild type strain of worms; assay: Toxicity and food avoidance test in worms (SND301); assay type: in vivo, C. elegans; conditions: concentrations up to 50 μM, from embryo to first day of adulthood
Protocol: In a first stage of this study, normal worms were treated with various concentrations of SND301 to test toxicity and food avoidance.
To test food avoidance worms were placed on agar plates containing a grid of alternating control and compound-containing food spots. The number of worms on each food spot was recorded every two hours.

[6] = Table 1A, at a certain point during the study, N2

Structure (SMILES)	Age in days at 25% mortality (C. elegans) [days]	Age in days at 50% mortality (C. elegans) [days]	Age in days at 75% mortality (C. elegans) [days]	Age in days at 90% mortality (C. elegans) [days]	Age in days at 100% mortality (C. elegans) [days]	Death events [2, 6]	% Complete [2, 6] [%]	Death events ([2]; Table 1B, end of the study)	Maximum life span ([2]; end of the study) [days]	Median lifespan ([2]; end of the study) [days]	further results
CCNC(=O)Oc1ccc2c(c1)oc(=O)c1cc(OC(=O)NCC)ccc12 [SND302]	24.2	28.2	31.0	33.0	37.9						Median lifespan (C. elegans; 25 μM): 28.2 days; Mean lifespan (C. elegans; 25 μM, area under the survival curve): 27.0 days; Maximum life span (C. elegans; 25 μM): 36.1 days; Effect on lifespan (C. elegans; in words, compared to control): did not show a significant difference from the control; Significant differentially-expressed genes ([1]; Day 3, compared to the controls (Vehicle and Urolithin A)): 7-8 genes; Expression of gene C50F7.5 ([1]; Day 10): significantly upregulated; Significant differentially-expressed genes ([1]; Day 10, compared to the controls (Vehicle and Urolithin A)): 12-14 genes; Toxicity and stress response induction (transcriptome) ([1]; early exposure period): some signs of toxicity and stress response induction
Cc1ccc2c(c1)sc(-c1ccc(N(C)C)cc1)[n+]2C.[Cl-] [Thioflavin, Thioflavin T]						38	23.2	38	33	21	
CNC(=O)Oc1ccc2c(c1)oc(=O)c1cc(OC(=O)NC)ccc12 [SND301]						59	31.6	179	31	24	Cytotoxicity (LDH) leakage (human hepatocytes [3]): 7-10%; ATP content (human hepatocytes [4]): 72-103%; Effect on lifespan ([2]; 50 μM, in words): significantly increased life span; also recorded: significantly increased median lifespan; Surviving fraction ([2]; until day 24, compared with all groups): highest surviving fraction by a considerable margin; Tolerability of exposure [5]: well tolerated
Oc1ccc(C=Cc2cc(O)cc(O)c2)cc1 [Resveratrol, reference compound]	24.6	28.2	30.5	32.7	37.8						Median lifespan (C. elegans; 50 μM): 28.2 days; Maximum life span (C. elegans; 50 μM): 36.6 days
